The values that follow come from patent US20060009435A1, “Synthesis and powder preparation of fluticasone propionate” (priority 2004, published 2006).

What all share (type): physicochemical
Series [1] in a line: Observation of powder flow, agglomeration tendency and electrostatic charge.
The nature of series [2]: Particle size distribution by dynamic light scattering (Malvern Mastersizer 2000). Conditions: for particle size D(0.10) / particle size D(0.20) / particle size D(0.50) / particle size D(0.80) / particle size D(0.90) / particle size D(0.95) / particle size D(0.98) / particle size D(0.99) / particle size D(1.00): dynamic light scattering; for Particle size distribution D(v, 0.1), 0.1 quantile / Particle size distribution D(v, 0.5), 0.5 quantile / Particle size distribution D(v, 0.9), 0.9 quantile / Particle size distribution D(v, 0.95), 0.95 quantile: light scattering. How it is done:
Particle size was measured on a dynamic light scattering device by Malvern model Mastersizer 2000, using a measuring range of 0.02-2000 μm, accuracy level of 1% at the median, helium neon laser as a red light source, and solid state light source as a blue light source. Particle size distributions are presented as the average particle size of specified percentiles, including the flanking 0.1 and 0.9 quantiles and the median 0.5 quantile of the overall particle size distribution versus volume curve.

A short description of series [3]: SEM micrograph of particle shape.
Series [4] can be described thus: X-ray powder diffraction of the powder (crystalline or amorphous morphology). How it is done: X-ray diffraction data were acquired using a PHILIPS X-ray diffractometer model PW1050-70 set at 40 kV, 28 mA, using 1.54178 Å (Kα), diversion slit of 1°, receiving slit of 0.2 mm, scattering slit of 1° and a graphite monochromator.

Several values for one entry are separate records, joined by “and”; a condition that tells them apart may be missing. Identical values can stand only once. Entries after “also recorded” stand apart in the source; their conditions may differ. Like-named read-outs stand apart in the source and are kept apart here.

Consider `CCC(=O)O[C@]1(C(=O)SCF)[C@H](C)C[C@H]2[C@@H]3C[C@H](F)C4=CC(=O)C=C[C@]4(C)[C@@]3(F)[C@@H](O)C[C@@]21C` [Example 12, fluticasone propionate], for which, in series [1], the “Electrostatic charge of the powder” value is recorded as “tended to accumulate a considerable amount of static charge; also recorded: tended to accumulate a considerable amount of electrostatic charge”. Also, the Tendency to agglomerate result in series [1] is “generally tended to agglomerate; also recorded: high tendency to agglomerate”. For the same molecule, the “particle size distribution in words” value in series [2] (air-jet milled, data not shown) is given as “either too many oversized particles or too many undersized particles; also recorded: unsatisfactory size distribution”. Besides, the “Particle shape (SEM micrograph)” value in series [3] is recorded as “irregular shape of the particles; also recorded: irregular jaggedly shaped particles”; in series [3] (listed as Reference Example 12), “irregular jaggedly shape”.
For the molecule `CCC(=O)O[C@]1(C(=O)SCF)[C@H](C)C[C@H]2[C@@H]3C[C@H](F)C4=CC(=O)C=C[C@]4(C)[C@@]3(F)[C@@H](O)C[C@@]21C` [Example 13, fluticasone propionate], in series [1], the “Electrostatic charge of the powder” value is on record as “did not exhibit any static electricity”; the “Powder characteristics (flow and morphology of the powder)” value is listed as “Free flowing crystalline powder”; the Tendency to agglomerate result was “did not exhibit a tendency to agglomerate; also recorded: did not exhibit any tendency to agglomerate; also recorded: that does not tend to agglomerate”. In series [2], the Particle size median result is “Particle size median: 2.21 microns”, the “particle size D(0.10)” value is 0.95 micron, the “particle size D(0.20)” value is 1.31 micron and the “particle size D(0.50)” value turned out to be 2.21 microns. In series [2], the “particle size D(0.80)” value is on record as 3.43 microns, the “particle size D(0.90)” value turned out to be 4.23 microns, the “particle size D(0.95)” value is given as 4.96 microns and the “particle size D(0.98)” value stood at 5.82 microns. Besides, in series [2], the “particle size D(0.99)” value was determined as 6.37 microns; the “particle size D(1.00)” value worked out at 8.11 microns; the “Particle size distribution D(v, 0.1), 0.1 quantile” value amounted to 0.95 μ; the “Particle size distribution D(v, 0.5), 0.5 quantile” value was 2.21 μ. For the same molecule, in series [2], the “Particle size distribution D(v, 0.9), 0.9 quantile” value was found to be 4.23 μ and the “Particle size distribution D(v, 0.95), 0.95 quantile” value is given as 4.96 μ. For the same molecule, the “Morphology by X-ray powder diffraction pattern” value in series [4] is “crystalline morphology”. In addition, in series [3], the “Particle shape (SEM micrograph)” value was “regular spherical shape and have smooth surface; also recorded: uniform spherical shape”.
As for `CCC(=O)O[C@]1(C(=O)SCF)[C@H](C)C[C@H]2[C@@H]3C[C@H](F)C4=CC(=O)C=C[C@]4(C)[C@@]3(F)[C@@H](O)C[C@@]21C` [Example 14, fluticasone propionate], in series [1], the “Powder characteristics (flow and morphology of the powder)” value is “Free flowing crystalline powder”; the Tendency to agglomerate result is reported as “did not exhibit a tendency to agglomerate; also recorded: that does not tend to agglomerate”. Besides, in series [2], the Particle size median result is “Particle size median: 2.14 microns;”, the “particle size D(0.10)” value amounted to 0.96 micron, the “particle size D(0.20)” value was 1.27 micron and the “particle size D(0.50)” value came out at 2.14 microns. Moreover, in series [2], the “particle size D(0.80)” value is given as 3.44 microns, the “particle size D(0.90)” value was 4.36 microns, the “particle size D(0.95)” value was 5.27 microns and the “particle size D(0.98)” value amounted to 6.44 microns. In addition, in series [2], the “particle size D(0.99)” value is 7.32 microns; the “particle size D(1.00)” value turned out to be 13.54 microns; the “Particle size distribution D(v, 0.1), 0.1 quantile” value is given as 0.96 μ; the “Particle size distribution D(v, 0.5), 0.5 quantile” value was 2.14 μ. Besides, in series [2], the “Particle size distribution D(v, 0.9), 0.9 quantile” value is 4.36 μ and the “Particle size distribution D(v, 0.95), 0.95 quantile” value is 5.27 μ.
For the molecule `CCC(=O)O[C@]1(C(=O)SCF)[C@H](C)C[C@H]2[C@@H]3C[C@H](F)C4=CC(=O)C=C[C@]4(C)[C@@]3(F)[C@@H](O)C[C@@]21C` [Example 15, fluticasone propionate], in series [1], the “Powder characteristics (flow and morphology of the powder)” value is listed as “Free flowing crystalline powder”; the Tendency to agglomerate entry was “did not exhibit a tendency to agglomerate; also recorded: that does not tend to agglomerate”. Moreover, in series [2], the Particle size median result is “Particle size median 2.67 microns;”, the “particle size D(0.10)” value turned out to be 1.06 micron, the “particle size D(0.20)” value is reported as 1.52 micron and the “particle size D(0.50)” value is 2.67 microns. In addition, in series [2], the “particle size D(0.80)” value is listed as 4.51 microns, the “particle size D(0.90)” value was 5.95 microns, the “particle size D(0.95)” value was found to be 7.51 microns and the “particle size D(0.98)” value came out at 9.81 microns. Also, in series [2], the “particle size D(0.99)” value is 11.67 microns; the “Particle size distribution D(v, 0.1), 0.1 quantile” value amounted to 1.06 μ; the “Particle size distribution D(v, 0.5), 0.5 quantile” value amounted to 2.67 μ.
Turning to `CCC(=O)O[C@]1(C(=O)SCF)[C@H](C)C[C@H]2[C@@H]3C[C@H](F)C4=CC(=O)C=C[C@]4(C)[C@@]3(F)[C@@H](O)C[C@@]21C` [Example 16, fluticasone propionate], the “Powder characteristics (flow and morphology of the powder)” value in series [1] was “Partially amorphous powder”. Also, in series [2], the Particle size median result is on record as “Particle size median 4.10 microns;”, the “particle size of the powder” value is “less than 10 microns”, the “particle size D(0.10)” value amounted to 1.90 micron and the “particle size D(0.20)” value is 2.46 micron. Besides, in series [2], the “particle size D(0.50)” value was 4.11 microns, the “particle size D(0.80)” value is 6.70 microns, the “particle size D(0.90)” value is given as 8.40 microns and the “particle size D(0.95)” value is 9.86 microns. Further, in series [2], the “particle size D(0.98)” value is 11.35 microns; the “particle size D(0.99)” value is listed as 12.10 microns; the “particle size D(1.00)” value stood at 14.24 microns; the “Particle size distribution D(v, 0.1), 0.1 quantile” value came to 1.90 μ. Further, in series [2], the “Particle size distribution D(v, 0.5), 0.5 quantile” value was 4.11 μ and 4.10 μ; the “Particle size distribution D(v, 0.9), 0.9 quantile” value is 8.40 μ and 8.39 μ; the “Particle size distribution D(v, 0.95), 0.95 quantile” value was 9.86 μ. Also, in series [4], the “Morphology by X-ray powder diffraction pattern” value is “low level of a crystalline morphology; also recorded: mostly amorphous morphology”.
